Test results reported in patent US11840707B2, “Co-culture system and method for in vitro assessment of reverse cholesterol transport” (INSTITUT DE CARDIOLOGIE DE MONTREAL, priority 2016, dated 2023).

What was measured:
J774 macrophages = assay: Co-culture assay: Specific Chol Efflux from 3H-cholesterol-labeled J774 macrophages; assay type: cell-based, murine
From the text: (§1) Total Chol Efflux is the sum of co-culture medium counts plus hepatic counts, while Total Chol Uptake is defined as hepatic counts only. Both Chol Efflux and Chol Uptake are expressed as % of total counts in the system. Background values, corresponding to basal co-culture medium (without acceptors), can be subtracted from the corresponding values in presence of acceptors to obtain Specific Chol Efflux (%) and Specific Chol Uptake (%) values.
(§2) Simultaneous Measurement of Cholesterol Flux Between Cholesterol-Loaded, ^3H-Cholesterol-Labeled J774 Cells and Target HepG2 Hepatocytes in a Transwell-Clear™ Insert.
(§3) J774 cells were seeded at a density of 8,000 cells per cm^2 in 1 mL of Dulbecco's minimal essential medium (DMEM, high glucose) and supplemented with 10% fetal bovine serum (FBS) and 1% penicillin/streptomycin in standard 12-well (3.8 cm^2) flat bottom plates (Corning).
(§4) Loaded plates were pre-incubated in an incubator at 37° C. with 5% CO2 for 30-45 min without cells in order to improve later cell attachment and maximize cell spreading on the insert membrane during cell culture. After pre-incubation, the media was removed. The wells of the Transwell plates were then filled with 1.5 mL of EMEM (low glucose) supplemented with 10% FBS and 1% penicillin/streptomycin and HepG2 cells were seeded at a density of 60,000 cells per cm^2 in 0.5 mL EMEM (low glucose) supplemented with 10% FBS and 1% penicillin/streptomycin on each insert.
(§5) Following seeding in plates or inserts, both cell types were placed in a cell incubator at 37° C. filled with humidified air and 5% CO2 and incubated for 72 h.
(§6) Following the 72-hour incubation and achieving a J774 cell confluence of 70-80%, the J774 cells were washed with 1 mL per well of PBS at 20° C. After the wash, 1 mL of Labeling Medium was added to each well. The Labeling Medium contained: 1% FBS, 1% penicillin/streptomycin, 2 μCi/mL of ^3H-cholesterol (Perkin-Elmer, NET139005MC), 50 μg protein/mL of acetylated LDL (acLDL) and DMEM (high glucose). The cells were then incubated for 24 hr at 37° C. in a cell incubator filled with humidified air and 5% CO2. One plate served as a reference to determine the labeled-cholesterol level in cells prior to co-culture assay.
(§7) Following the 72-hour incubation, the culture medium was removed from HepG2 cells grown on the insert membrane and replaced with 2 mL of fresh EMEM (low glucose) supplemented with 10% FBS and 1% penicillin/streptomycin. The cells were then incubated for an additional 24 hours at 37° C. in an incubator filled with humidified air and 5% CO2.
(§8) Following the 24-hour incubation of J774 cells, the labeling medium was removed from the plates and discarded. The cells were then washed with 1 mL of phosphate-buffered saline (PBS) at 20° C. and replaced with Equilibration Medium containing: DMEM (high glucose), 0.2% Bovine Serum Albumin (BSA) (low endotoxin, fatty acid-free, Sigma, cat. #A8806) and the appropriate Treatment under study. The J774 culture was then incubated for 24 hours.
(§9) J774 cells ongoing the ^3H-cholesterol equilibration phase and/or HepG2 cells before co-culture can be treated by various means. Pharmacological agent is diluted in the appropriate culture medium with 0.2% BSA and vehicle (solvent) is tested in parallel. Modulation of gene expression is also accomplished at this step, by transfection of siRNA according to the manufacturer's protocol, and a control non-silencing RNA is tested in parallel.
After 24 hour of incubation, equilibration medium from J774 culture and culture medium from HepG2 cells were discarded. Cells were washed with 1 mL (J774) or 2 mL (HepG2) of PBS at 20° C. and the wash medium discarded. Transwell inserts containing HepG2 cells were removed and transferred to each well containing the J774 culture. 2 mL of co-culture media (DMEM without phenol red, high glucose, 4.5 g/L) were added to each well. The resulting co-culture system was incubated in a cell incubator at 37° C. for 24 hours.

HepG2 hepatocytes = assay: Co-culture assay: Specific Chol Uptake into HepG2 hepatocytes on insert membrane; assay type: cell-based, human; conditions: for reduction of hepatic Specific Chol Uptake: 10 μM, HepG2 overnight and during co-culture
From the text: as §1, §2, §3
as §4, with “Transwell-Clear™ 12-well plates (Corning, cat. #3642), each consisting of 12 cylindrical cell culture inserts (1.12 cm^2 insert/well) were bathed with 2 mL Eagle's minimal essential medium (EMEM, low glucose) distributed as follows: 0.5 mL in the insert and 1.5 mL in the well. Loaded” for “Loaded”
as §5, §6, §7, §8, §9
After 24 hour of incubation, equilibration medium from J774 culture and culture medium from HepG2 cells were discarded. Cells were washed with 1 mL (J774) or 2 mL (HepG2) of PBS at 20° C. and the wash medium discarded.

[1] = J774 pre-treated overnight 10 μM, acceptors HS and DHS, vs vehicle DMSO
[2] = 10 nM in co-culture medium for 24 h, acceptor complete human serum
[3] = 24 h co-culture, one-site non-linear regression
[4] = purified acceptor, 24 h co-culture, one-site non-linear regression

## CCOC(=O)N1c2ccc(C(F)(F)F)cc2[C@@H](N(Cc2cc(C(F)(F)F)cc(C(F)(F)F)c2)C(=O)OC)C[C@H]1CC [torcetrapib]
J774 macrophages; 10 μM, HepG2 overnight and during co-culture, acceptors HS and DHS
  effect on Specific Efflux: did not affect
HepG2 hepatocytes; acceptor apoB-depleted serum
  reduction of hepatic Specific Chol Uptake: 21%
HepG2 hepatocytes; acceptor apoB-depleted serum, listed as Torcetrapib
  reduction of hepatic Specific Chol Uptake: reduced
HepG2 hepatocytes; acceptor complete serum
  reduction of hepatic Specific Chol Uptake: 31%
HepG2 hepatocytes; acceptor complete serum, listed as Torcetrapib
  reduction of hepatic Specific Chol Uptake: reduced

## O=S(=O)(c1ccccc1)N(CC(F)(F)F)c1ccc(C(O)(C(F)(F)F)C(F)(F)F)cc1 [TO901317]
J774 macrophages; [1]
  effect on Specific Chol Efflux: increased
HepG2 hepatocytes; [1]
  effect on Specific Chol Uptake: increased

## CC[C@H](C)C(=O)O[C@H]1CCC=C2C=C[C@H](C)[C@H](CC[C@@H]3C[C@@H](O)CC(=O)O3)[C@H]21 [mevastatin]
J774 macrophages; HepG2 pre-treated overnight 25 μM, acceptor human serum
  effect on Specific Chol Efflux: did not change
J774 macrophages; hepatocytes pre-treated 10 μM, acceptor human serum
  effect on Chol Efflux to human serum: no effect
HepG2 hepatocytes; HepG2 pre-treated overnight 25 μM, acceptor apoB-depleted serum
  effect on Specific Chol Uptake: reduced effect
HepG2 hepatocytes; HepG2 pre-treated overnight 25 μM, acceptor complete human serum
  effect on Specific Chol Uptake: significantly increased
HepG2 hepatocytes; hepatocytes pre-treated 10 μM, acceptor apoB-depleted serum, compared to complete serum
  effect on Chol Uptake: reduced effect
HepG2 hepatocytes; hepatocytes pre-treated 10 μM, acceptor complete human serum
  effect on hepatic Chol Uptake: increased

## PCSK9 D374Y: purified human PCSK9 gain-of-function D374Y mutant protein
J774 macrophages; [2]
  effect on Specific Chol Efflux: no effect
J774 macrophages; 10 nM in co-culture medium for 24 h, acceptor complete human serum, listed as purified PCSK9 mutant
  effect on Specific Chol Efflux: did not influence
HepG2 hepatocytes; [2]
  effect on Specific Chol Uptake: markedly reduced

## ApoA-I: human apolipoprotein A-I, purified, used as Chol acceptor
J774 macrophages; [3]
  Bmax (maximal flux), Specific Efflux: 15.9 ± 0.9%
J774 macrophages; acceptor at 100 μg/ml, 24 h co-culture
  Specific Chol Efflux compared to LDL: higher
J774 macrophages; [4]
  kA (affinity constant), Specific Efflux: 7.2 ± 1.4 μg protein/mL
HepG2 hepatocytes; [3]
  Bmax (maximal flux), Specific Uptake: 0.83 ± 0.03%
HepG2 hepatocytes; [4]
  kA (affinity constant), Specific Uptake: 7.0 ± 1.0 μg protein/mL
